Assay results published in ChEMBL document CHEMBL1201861, “Genomics of Drug Sensitity in Cancer screening data, Wellcome Trust Sanger Institute”.

Experiments:
Assay in all cases: cells
GMS-10 = assay type: functional, cell-based, Homo sapiens; details: Homo sapiens, GMS-10
Description: SANGER: Inhibition of human GMS-10 cell growth in a cell viability assay.

LU-139 = assay type: functional, cell-based; details: Homo sapiens
Description: SANGER: Inhibition of human LU-139 cell growth in a cell viability assay.

HAL-01 = assay type: functional, cell-based; details: Homo sapiens
Description: SANGER: Inhibition of human HAL-01 cell growth in a cell viability assay.

GI-ME-N = assay type: functional, cell-based, Homo sapiens; details: Homo sapiens, GI-ME-N
Description: SANGER: Inhibition of human GI-ME-N cell growth in a cell viability assay.

KNS-42 = assay type: functional, cell-based, Homo sapiens; details: Homo sapiens, KNS-42
Description: SANGER: Inhibition of human KNS-42 cell growth in a cell viability assay.

NCI-H2126 = assay type: functional, cell-based, Homo sapiens; details: Homo sapiens, NCI-H2126
Description: SANGER: Inhibition of human NCI-H2126 cell growth in a cell viability assay.

COLO-741 = assay type: functional, cell-based, Homo sapiens; details: Homo sapiens, COLO-741
Description: SANGER: Inhibition of human COLO-741 cell growth in a cell viability assay.

HuTu80 = assay type: functional, cell-based, Homo sapiens, HUTU-80; details: Homo sapiens, HuTu80
Description: SANGER: Inhibition of human HUTU-80 cell growth in a cell viability assay.

SK-N-FI = assay type: functional, cell-based, Homo sapiens; details: Homo sapiens, SK-N-FI
Description: SANGER: Inhibition of human SK-N-FI cell growth in a cell viability assay.

HT = assay type: functional, cell-based; details: Homo sapiens
Description: SANGER: Inhibition of human HT cell growth in a cell viability assay.

HCC1937 = assay type: functional, cell-based, Homo sapiens; details: Homo sapiens, HCC1937
Description: SANGER: Inhibition of human HCC1937 cell growth in a cell viability assay.

SNU1 = assay type: functional, cell-based; details: Homo sapiens
Description: SANGER: Inhibition of human NCI-SNU-1 cell growth in a cell viability assay.

ES5 = assay type: functional, cell-based, Homo sapiens; details: Homo sapiens, ES5
EOL1 = assay type: functional, cell-based; details: Homo sapiens
Description: SANGER: Inhibition of human EoL-1-cell cell growth in a cell viability assay.

Ca9-22 = assay type: functional, cell-based, Homo sapiens; details: Homo sapiens, Ca9-22
Description: SANGER: Inhibition of human Ca9-22 cell growth in a cell viability assay.

OCUB-M = assay type: functional, cell-based, Homo sapiens; details: Homo sapiens, OCUB-M
Description: SANGER: Inhibition of human OCUB-M cell growth in a cell viability assay.

CAL-85-1 = assay type: functional, cell-based; details: Homo sapiens
NCI-H810 = assay type: functional, cell-based, Homo sapiens; details: Homo sapiens, NCI-H810
Description: SANGER: Inhibition of human NCI-H810 cell growth in a cell viability assay.

COLO-824 = assay type: functional, cell-based, Homo sapiens; details: Homo sapiens, COLO-824
Description: SANGER: Inhibition of human COLO-824 cell growth in a cell viability assay.

SK-HEP1 = assay type: functional, cell-based, Homo sapiens, SK-HEP-1; details: Homo sapiens, SK-HEP1
Description: SANGER: Inhibition of human SK-HEP-1 cell growth in a cell viability assay.

HT-3 = assay type: functional, cell-based, Homo sapiens; details: Homo sapiens, HT-3
Description: SANGER: Inhibition of human HT-3 cell growth in a cell viability assay.

LB2518-MEL = assay type: functional, cell-based, Homo sapiens; details: Homo sapiens, LB2518-MEL
Description: SANGER: Inhibition of human LB2518-MEL cell growth in a cell viability assay.

TE-10 = assay type: functional, cell-based, Homo sapiens; details: Homo sapiens, TE-10
NCI-H520 = assay type: functional, cell-based, Homo sapiens; details: Homo sapiens, NCI-H520
Description: SANGER: Inhibition of human NCI-H520 cell growth in a cell viability assay.

LU-134-A = assay type: functional, cell-based; details: Homo sapiens
Description: SANGER: Inhibition of human LU-134-A cell growth in a cell viability assay.

KURAMOCHI = assay type: functional, cell-based; details: Homo sapiens
Description: SANGER: Inhibition of human KURAMOCHI cell growth in a cell viability assay.

GI-1 = assay type: functional, cell-based, Homo sapiens; details: Homo sapiens, GI-1
Description: SANGER: Inhibition of human GI-1 cell growth in a cell viability assay.

SW626 = assay type: functional, cell-based, Homo sapiens; details: Homo sapiens, SW626
Description: SANGER: Inhibition of human SW626 cell growth in a cell viability assay.

KINGS-1 = assay type: functional, cell-based, Homo sapiens; details: Homo sapiens, KINGS-1
Description: SANGER: Inhibition of human KINGS-1 cell growth in a cell viability assay.

D-263MG = assay type: functional, cell-based, Homo sapiens; details: Homo sapiens, D-263MG
Description: SANGER: Inhibition of human D-263MG cell growth in a cell viability assay.

CAL-120 = assay type: functional, cell-based, Homo sapiens; details: Homo sapiens, CAL-120
Description: SANGER: Inhibition of human CAL-120 cell growth in a cell viability assay.

MN-60 = assay type: functional, cell-based; details: Homo sapiens
Description: SANGER: Inhibition of human MN-60 cell growth in a cell viability assay.

HC-1 = assay type: functional, cell-based; details: Homo sapiens
Description: SANGER: Inhibition of human HC-1 cell growth in a cell viability assay.

CAL-51 = assay type: functional, cell-based, Homo sapiens; details: Homo sapiens, CAL-51
Description: SANGER: Inhibition of human CAL-51 cell growth in a cell viability assay.

ES1 = assay type: functional, cell-based, Homo sapiens; details: Homo sapiens, ES1
Description: SANGER: Inhibition of human ES1 cell growth in a cell viability assay.

NCI-H661 = assay type: functional, cell-based, Homo sapiens; details: Homo sapiens, NCI-H661
Description: SANGER: Inhibition of human NCI-H661 cell growth in a cell viability assay.

NCI-H1651 = assay type: functional, cell-based, Homo sapiens; details: Homo sapiens, NCI-H1651
Description: SANGER: Inhibition of human NCI-H1651 cell growth in a cell viability assay.

A253 cell line = assay type: functional, cell-based, Homo sapiens; details: Homo sapiens, A253
Description: SANGER: Inhibition of human A253 cell growth in a cell viability assay.

KARPAS-299 = assay type: functional, cell-based; details: Homo sapiens
Description: SANGER: Inhibition of human KARPAS-299 cell growth in a cell viability assay.

UACC-893 = assay type: functional, cell-based, Homo sapiens; details: Homo sapiens, UACC-893
Description: SANGER: Inhibition of human UACC-893 cell growth in a cell viability assay.

EGI-1 = assay type: functional, cell-based, Homo sapiens; details: Homo sapiens, EGI-1
Description: SANGER: Inhibition of human EGI-1 cell growth in a cell viability assay.

NCI-H446 = assay type: functional, cell-based; details: Homo sapiens
Description: SANGER: Inhibition of human NCI-H446 cell growth in a cell viability assay.

KP-N-YS = assay type: functional, cell-based; details: Homo sapiens
Description: SANGER: Inhibition of human KP-N-YS cell growth in a cell viability assay.

NCI-N87 = assay type: functional, cell-based, Homo sapiens; details: Homo sapiens, NCI-N87
Description: SANGER: Inhibition of human NCI-N87 cell growth in a cell viability assay.

HOP-92 = assay type: functional, cell-based, Homo sapiens; details: Homo sapiens, HOP-92
Description: SANGER: Inhibition of human HOP-92 cell growth in a cell viability assay.

HMV-2 cell line = assay type: functional, cell-based, Homo sapiens; details: Homo sapiens, HMV-2
Description: SANGER: Inhibition of human HMV-II cell growth in a cell viability assay.

EW-11 = assay type: functional, cell-based, Homo sapiens; details: Homo sapiens, EW-11
Description: SANGER: Inhibition of human EW-11 cell growth in a cell viability assay.

NCI-H209 = assay type: functional, cell-based; details: Homo sapiens
Description: SANGER: Inhibition of human NCI-H209 cell growth in a cell viability assay.

SK-NEP-1 = assay type: functional, cell-based; details: Homo sapiens
Description: SANGER: Inhibition of human SK-NEP-1 cell growth in a cell viability assay.

KYSE-410 = assay type: functional, cell-based, Homo sapiens; details: Homo sapiens, KYSE-410
Description: SANGER: Inhibition of human KYSE-410 cell growth in a cell viability assay.

Capan-2 = assay type: functional, cell-based, Homo sapiens; details: Homo sapiens, Capan-2
NCI-H1770 = assay type: functional, cell-based; details: Homo sapiens
Description: SANGER: Inhibition of human NCI-H1770 cell growth in a cell viability assay.

## COC(=O)CNC(=O)C(=O)OC
GMS-10
  IC50: 2190 µM
LU-139
  IC50: 184 µM
HAL-01
  IC50: 119 µM
GI-ME-N
  IC50: 2120 µM
KNS-42
  IC50: 229 µM
NCI-H2126
  IC50: 1800 µM
COLO-741
  IC50: > 4000 µM
HuTu80
  IC50: 1260 µM
SK-N-FI
  IC50: > 4000 µM
HT
  IC50: 132 µM
HCC1937
  IC50: 893 µM
SNU1
  IC50: > 4000 µM
ES5
  IC50: > 4000 µM
EOL1
  IC50: 122 µM
Ca9-22
  IC50: 924 µM
OCUB-M
  IC50: > 4000 µM
CAL-85-1
  IC50: 108 µM
NCI-H810
  IC50: 630 µM
COLO-824
  IC50: 2400 µM
SK-HEP1
  IC50: 84.2 µM
HT-3
  IC50: 853 µM
LB2518-MEL
  IC50: 235 µM
TE-10
  IC50: 629 µM
NCI-H520
  IC50: 398 µM
LU-134-A
  IC50: > 4000 µM
KURAMOCHI
  IC50: 1570 µM
GI-1
  IC50: 146 µM
SW626
  IC50: 1840 µM
KINGS-1
  IC50: 585 µM
D-263MG
  IC50: 410 µM
CAL-120
  IC50: 806 µM
MN-60
  IC50: 147 µM
HC-1
  IC50: 569 µM
CAL-51
  IC50: 238 µM
ES1
  IC50: 1260 µM
NCI-H661
  IC50: 2280 µM
NCI-H1651
  IC50: 1360 µM
A253 cell line
  IC50: 232 µM
KARPAS-299
  IC50: 98 µM
UACC-893
  IC50: > 4000 µM
EGI-1
  IC50: 329 µM
NCI-H446
  IC50: 646 µM
KP-N-YS
  IC50: 1680 µM
NCI-N87
  IC50: 3950 µM
HOP-92
  IC50: 1960 µM
HMV-2 cell line
  IC50: > 4000 µM
EW-11
  IC50: 1050 µM
NCI-H209
  IC50: 1130 µM
SK-NEP-1
  IC50: 976 µM
KYSE-410
  IC50: 20.8 µM
Capan-2
  IC50: 338 µM
NCI-H1770
  IC50: > 4000 µM

## CN(c1ncccc1CNc1nc(Nc2ccc3c(c2)CC(=O)N3)ncc1C(F)(F)F)S(C)(=O)=O [PF-00562271]
GMS-10
  IC50: > 2.56 µM
LU-139
  IC50: > 2.56 µM
HAL-01
  IC50: > 2.56 µM
GI-ME-N
  IC50: > 2.56 µM
KNS-42
  IC50: > 2.56 µM
NCI-H2126
  IC50: > 2.56 µM
COLO-741
  IC50: > 2.56 µM
HuTu80
  IC50: 1.45 µM
SK-N-FI
  IC50: > 2.56 µM
HT
  IC50: > 2.56 µM
HCC1937
  IC50: > 2.56 µM
SNU1
  IC50: > 2.56 µM
ES5
  IC50: > 2.56 µM
EOL1
  IC50: > 2.56 µM
Ca9-22
  IC50: > 2.56 µM
OCUB-M
  IC50: > 2.56 µM
CAL-85-1
  IC50: 1.8 µM
NCI-H810
  IC50: 1.11 µM
COLO-824
  IC50: > 2.56 µM
SK-HEP1
  IC50: > 2.56 µM
HT-3
  IC50: > 2.56 µM
LB2518-MEL
  IC50: > 2.56 µM
TE-10
  IC50: > 2.56 µM
NCI-H520
  IC50: > 2.56 µM
LU-134-A
  IC50: > 2.56 µM
KURAMOCHI
  IC50: > 2.56 µM
GI-1
  IC50: > 2.56 µM
SW626
  IC50: > 2.56 µM
KINGS-1
  IC50: > 2.56 µM
D-263MG
  IC50: > 2.56 µM
CAL-120
  IC50: > 2.56 µM
MN-60
  IC50: > 2.56 µM
HC-1
  IC50: > 2.56 µM
CAL-51
  IC50: > 2.56 µM
ES1
  IC50: > 2.56 µM
NCI-H661
  IC50: > 2.56 µM
NCI-H1651
  IC50: > 2.56 µM
A253 cell line
  IC50: > 2.56 µM
KARPAS-299
  IC50: > 2.56 µM
UACC-893
  IC50: > 2.56 µM
EGI-1
  IC50: > 2.56 µM
NCI-H446
  IC50: > 2.56 µM
KP-N-YS
  IC50: > 2.56 µM
NCI-N87
  IC50: > 2.56 µM
HOP-92
  IC50: 2.31 µM
HMV-2 cell line
  IC50: > 2.56 µM
EW-11
  IC50: > 2.56 µM
NCI-H209
  IC50: > 2.56 µM
SK-NEP-1
  IC50: > 2.56 µM
KYSE-410
  IC50: > 2.56 µM
Capan-2
  IC50: > 2.56 µM
NCI-H1770
  IC50: > 2.56 µM

## Cc1ccc(Nc2nccc(N(C)c3ccc4c(C)n(C)nc4c3)n2)cc1S(N)(=O)=O [PAZOPANIB]
GMS-10
  IC50: > 8 µM
LU-139
  IC50: > 8 µM
HAL-01
  IC50: > 8 µM
GI-ME-N
  IC50: > 8 µM
KNS-42
  IC50: > 8 µM
NCI-H2126
  IC50: > 8 µM
COLO-741
  IC50: > 8 µM
HuTu80
  IC50: 1.28 µM
SK-N-FI
  IC50: > 8 µM
HT
  IC50: > 8 µM
HCC1937
  IC50: > 8 µM
SNU1
  IC50: > 8 µM
ES5
  IC50: > 8 µM
EOL1
  IC50: < 0.0312 µM
Ca9-22
  IC50: > 8 µM
OCUB-M
  IC50: 3.31 µM
CAL-85-1
  IC50: > 8 µM
NCI-H810
  IC50: 6.31 µM
COLO-824
  IC50: > 8 µM
SK-HEP1
  IC50: > 8 µM
HT-3
  IC50: > 8 µM
LB2518-MEL
  IC50: > 8 µM
TE-10
  IC50: > 8 µM
NCI-H520
  IC50: 5.73 µM
LU-134-A
  IC50: > 8 µM
KURAMOCHI
  IC50: > 8 µM
GI-1
  IC50: 2.23 µM
SW626
  IC50: > 8 µM
KINGS-1
  IC50: > 8 µM
D-263MG
  IC50: > 8 µM
CAL-120
  IC50: > 8 µM
MN-60
  IC50: > 8 µM
HC-1
  IC50: > 8 µM
CAL-51
  IC50: > 8 µM
ES1
  IC50: > 8 µM
NCI-H661
  IC50: > 8 µM
NCI-H1651
  IC50: > 8 µM
A253 cell line
  IC50: > 8 µM
KARPAS-299
  IC50: > 8 µM
UACC-893
  IC50: > 8 µM
EGI-1
  IC50: > 8 µM
NCI-H446
  IC50: > 8 µM
KP-N-YS
  IC50: > 8 µM
NCI-N87
  IC50: > 8 µM
HOP-92
  IC50: > 8 µM
HMV-2 cell line
  IC50: > 8 µM
EW-11
  IC50: > 8 µM
NCI-H209
  IC50: > 8 µM
SK-NEP-1
  IC50: > 8 µM
KYSE-410
  IC50: > 8 µM
Capan-2
  IC50: > 8 µM
NCI-H1770
  IC50: > 8 µM
